Assay results taken from US10160972B2, “Methods and materials for treating cancer” (Mayo Foundation for Medical Education and Research, priority 2012, dated 2018).

How the values were obtained:
[1] = system: BCJ4T bladder cancer cells; experiment: Cell number growth inhibition assay; assay type: cell-based, human
Protocol: (§1) A number of cancer cell lines were tested to determine whether SCD1 protein expression correlates with growth inhibition of an SCD1 inhibitor in human cancer cell lines.
(§2) Cells (20,000/ml) were plated in 12 well cell culture plates, allowed to attach and treated with the indicated dose of SCD1 inhibitor ([…]) or standard of care (gemcitabine). Cell number was counted using a Coulter Counter. As show in FIG. 7, the data are expressed as percent of DMSO control. Each value represents triplicates. Western analysis for SCD1 protein expression was performed on each cell line with beta-actin as the loading control.
(§3) The following cell lines were studied using a similar method as that described above.

[2] = system: HT1376 bladder cancer cells; experiment: Cell number growth inhibition assay; assay type: cell-based, human
Protocol: as §1, §2, §3

[3] = system: T24 bladder cancer cells; experiment: Cell number growth inhibition assay; assay type: cell-based, human
Protocol: as §1, §2, §3

[4] = system: SNU449 liver cancer cells; experiment: Cell number growth inhibition assay; assay type: cell-based, human; details: SNU449 liver cancer cells
Protocol: as §1, §2, §3

[5] = system: HOV TAX2 ovarian cancer cells; experiment: Cell number growth inhibition assay; assay type: cell-based, human
Protocol: as §1, §2, §3

[6] = system: KTC3 thyroid cancer cells; experiment: Cell number growth inhibition assay; assay type: cell-based, human
Protocol: as §1, §2, §3

[7] = system: A549 nonsmall cell lung cancer cells; experiment: Cell number growth inhibition assay; assay type: cell-based, human
Protocol: as §1, §2, §3

[8] = system: FF1 cells; experiment: Cell number growth inhibition assay; assay type: cell-based, human
Protocol: A number of cancer cell lines were tested to determine whether SCD1 protein expression correlates with growth inhibition of an SCD1 inhibitor in human cancer cell lines. […] Cell number was counted using a Coulter Counter. […] Each value represents triplicates.

[9] = system: Mela 11 melanoma cells; experiment: Cell number growth inhibition assay; assay type: cell-based, human
Protocol: as §1, §2, §3

[10] = system: A375 melanoma cells; experiment: Cell number growth inhibition assay; assay type: cell-based, human
Protocol: as §1, §2, §3

[11] = system: A498 ccRCC xenografts; experiment: Western blot of CHOP in xenograft tumor tissue; assay type: in vivo, athymic nude (nu/nu) mice; details: normalized to β-actin, tumor tissue samples
Protocol: (§4) Protein extracts, electrophoresis, and membrane transfers were prepared as previously described (Copland J A, Marlow L A, Kurakata S, Fujiwara K, Wong A K, Kreinest P A, et al. Novel highaffinity PPARgamma agonist alone and in combination with paclitaxel inhibits human anaplastic thyroid carcinoma tumor growth via p21WAF1/CIP1. Oncogene. 2006; 25:2304-17). Primary antibodies included SCD1, PARP, DDIT3, BiP, sXBP1, and β-actin. A Supersignal chemiluminescent kit was used to perform detection.

[12] = system: SCD1; details: breast cancer cells, previously reported; cited from earlier work
[13] = system: A498 ccRCC xenografts; experiment: IHC analysis of resected xenograft tumors
Protocol: The TMAs were mounted on slides from paraffin-embedded blocks according to IHC procedure and samples were blocked with Diluent that contained Background Reducing Components (Dakocytomation) for 30 min and then probed for SCD1, Ki67, Caspase-3, CD31, phospho-mTOR, DDIT3, and XBP1. […] Stain scoring was done using algorithms generated with Imagescope software created by a histologist. H-scores were calculated based upon signal intensity (0-3+) using the formula: [(1+%×1)+(2+%×2)+(3+%×3)], intensity (I)-scores were calculated by dividing signal intensity by area, and nuclear (N)-scores were calculated by dividing % positive nuclei by total nuclei examined per area. Cases where insufficient tumor tissue presented were excluded from the study. 20× images were obtained using Scanscope XT and Imagescope software.
IHC analysis of tumors resected from each treatment group was analyzed for proliferation, angiogenesis, and cell death (FIG. 6B).

[14] = system: A498, Caki1, Caki2, and ACHN ccRCC cell lines; experiment: Temsirolimus dose out, cell proliferation; assay type: cell-based, human; details: monotherapy, four ccRCC cell lines; no dose response could be determined
Protocol: (§5) Drug stocks were prepared in DMSO. Monotherapeutic treatment identified drug dose-response. […] Temsirolimus dosing was performed as described in the text.
After identifying appropriate cell proliferative dose responses for pazopanib and sunitinib in four ccRCC cell lines including A498, Caki1, Caki2, and ACHN, both TKIs were dosed in combination with A939572 up to approximately the IC50 dose for each drug in the Caki1 and the A498 cell lines. […] Combinatorial treatments were therefore done using a fixed dose of Tem (0.1 nM, 1 nM, and 10 nM) combined with a dose range of A939572 up to the IC50 in Caki1, A498, Caki2 and ACHN cells.

[15] = system: SCD1; experiment: Lentiviral shRNA knockdown of SCD1 in ccRCC cell lines (Caki1 and A498); assay type: cell-based, human
Protocol: (§6) MISSION shRNA pLK0.1 constructs were used to make self-inactivating shRNA lentiviruses for human SCD1 (clones: NM_005063.3-1200s1c1[shSCD1200], NM_005063.3-780s1c1[shSCD780]), and a non-target (NT) random scrambled sequence control (SHC002). Transfection reagents Lipofectamine 2000 and ViraPower were used to generate lentiviruses using HEK293FT viral progenitor cells. ccRCC and NRE cells were incubated with lentivirus plus 5 μg/mL polybrene for 24 hrs prior to clonal selection with Puromycin.
(§7) An RNAqueous Midi Kit was utilized to extract and purify RNA from cell lines. Human tissue RNA was prepared using TRIzol® per manufacturer's protocol followed by purification using the RNAqueous Midi Kit. The O.D. 260/280 ratio of the mRNA was at least 1.8 and the 18s/28s bands were verified on a 1% agarose gel. cDNA was prepared from purified RNA samples using High Capacity cDNA Reverse Transcriptase Kit per manufacturer's instruction. TaqMan®Fast Universal PCR Master Mix and TaqMan®FAMTM dye-labeled probes including POLR2A (Hs00172187_m1) (normalization control), SCD1 (Hs01682761_m1), HSPA5 (Hs99999174_m1), CEBPβ (CEBPB Hs00270923_s1), GADD45A (Hs00169255_m1), DDIT3 (Hs01090850_m1), and HERPUD1 (Hs01124269_m1) were combined with prepared cDNA samples to analyze relative mRNA expression via qPCR. Fold change values were compared between normal and tumor, non-target scrambled lentiviral and target lentiviral infected, and DMSO vs. A939572 treated samples using the ΔΔCt method (Schmittgen T D, Livak K J. Analyzing real-time PCR data by the comparative C(T) method. Nat Protoc. 2008; 3:1101-8).
as §4
To determine the involvement of SCD1 expression in renal cell carcinoma proliferation, two separate lentiviral constructs were designed to express shRNA molecules having the ability to reduce SCD1 expression. The first lentiviral construct was designed to express an shRNA designated SCD780. The sequence of SCD780 was as follows: 5′-[…]-3′ (SEQ ID NO:1). The second lentiviral construct was designed to express an shRNA designated SCD1200. The sequence of SCD1200 was as follows: 5′-[…]-3′ (SEQ ID NO:2). A non-target lentiviral construct was designed as a control.

[16] = system: SCD1; experiment: Lentiviral shRNA knockdown of SCD1 in normal renal epithelial cells (K359N and K360N); assay type: cell-based, human
Protocol: as §6
as §7, with “Fold change values were compared between normal and tumor, non-target scrambled lentiviral and target lentiviral infected, and DMSO vs. A939572 treated samples using the ΔΔCt method (Schmittgen T D, Livak K J. Analyzing real-time PCR data by the comparative C(T) method. Nat Protoc. 2008; 3:1101-8).” left out

[17] = system: Caki1 and A498 ccRCC cell lines; experiment: PARP cleavage immunoblot of shSCD lentiviral infected cells; assay type: cell-based, human
Protocol: as §6, §4
(§8) Media alone and BSA supplemented media served as control groups. Proliferation assay of NT control versus shSCD780 infected Caki1 and A498 cells cultured in media with or without OABSA were counted after five days. […] SCD1 knockdown by lentiviral infection was confirmed at the protein level (FIG. 3B).

[18] = system: Caki1 and A498 ccRCC cell lines; experiment: Proliferation assay of shSCD lentiviral infected cells; assay type: cell-based, human; details: vs NT control or treated normal kidney cells (K359N and K360N), counted after five days
Protocol: as §5, §6, §8

[19] = system: Caki1 cells; experiment: qPCR of five ER stress genes; assay type: cell-based, human
Protocol: as §7
(§9) In order to validate the specificity of ER stress induction mediated by both A939572 and shSCD780, rescue assays were performed using OA-BSA in Caki1 and A498 cells qPCR analysis of five ER stress genes identified in the gene array including BiP, CHOP, HERPUD1 (homocysteine-inducible, ER-stress inducible, ubiquitin-like-1), GADD45a (DNA damage inducible transcript 1, DDIT1), and CEBPβ (CCAAT/enhancer binding protein beta) were examined.

[20] = system: A498 cells; experiment: qPCR of five ER stress genes; assay type: cell-based, human
Protocol: as §7, §9

[21] = system: ATF6 luciferase reporter in A498 cells
Protocol: (§10) For transient transfection, Caki1 and A498 cells were transfected using Lipofectamine 2000. Cells treated with DMSO vs. A939572 or infected using shSCD780 lentiviral constructs vs. NT control were harvested after 48 hrs using Promega's Dual Luciferase assay kit per the manufacturer's protocol and luciferase activity was measured using a Veritas Luminometer; reported as relative luminescence.
(§11) Caki1 and A498 cells transfected with an ATF6 luciferase reporter (p5xATF6-GL3) were treated with a 75 nM dose of A939572 or were infected with shSCD780. Resulting luminescence was measured after 48 hours.

[22] = system: Caki1 and A498 cells; experiment: Western blot of ER stress markers; assay type: cell-based, human; details: 75 nM drug or shSCD780 knockdown, 48 hours
Protocol: as §4

[23] = system: ATF6 luciferase reporter in Caki1 cells
Protocol: as §10, §11

N.N.[Cl][Pt][Cl] [Cisplatin]
growth inhibition [1]: minimal growth inhibitory effects
growth inhibition [2]: minimal growth inhibitory effects
growth inhibition [3]: minimal growth inhibitory effects

CNC(=O)c1cc(Oc2ccc(NC(=O)Nc3ccc(Cl)c(C(F)(F)F)c3)cc2)ccn1 [Sorafenib]
effective concentrations [4]: 1 to 10 µM

CC(=O)O[C@H]1C(=O)[C@@]2(C)[C@H]([C@H](OC(=O)c3ccccc3)[C@]3(O)C[C@H](OC(=O)[C@H](O)[C@@H](NC(=O)c4ccccc4)c4ccccc4)C(C)=C1C3(C)C)[C@]1(OC(C)=O)CO[C@@H]1C[C@@H]2O [Taxol]
growth inhibition [5]: growth inhibitory
growth inhibition [6]: growth inhibitory
growth inhibition [7]: growth inhibitory
growth inhibition [8]: minimal growth inhibitory effects

Cn1nnc2c(C(N)=O)ncn2c1=O [Temodar]
growth inhibition [9]: not
growth inhibition [10]: dose responsively inhibits growth

CO[C@H]1C[C@@H]2CC[C@@H](C)[C@@](O)(O2)C(=O)C(=O)N2CCCC[C@H]2C(=O)O[C@H]([C@H](C)C[C@@H]2CC[C@@H](OC(=O)C(C)(CO)CO)[C@H](OC)C2)CC(=O)[C@H](C)/C=C(\C)[C@@H](O)[C@@H](OC)C(=O)[C@H](C)C[C@H](C)/C=C/C=C/C=C/1C [Temsirolimus, temsirolimus]
CHOP expression (ER stress) [11]: induction of CHOP, although to a lesser extent
SCD1 expression [12]: decrease SCD1 expression
phosphorylated mTOR expression ([13]; compared to the Placebo and A939572 groups): decreased expression
angiogenesis, intensity of microvessel density (CD31) ([13]; cumulative scores not considered significant): slight decrease
cell death, cleaved caspase-3 (CC3) ([13]; vs placebo / other groups): moderate increase
proliferation, percent positivity of nuclear Ki67 staining ([13]; vs placebo control): decreased proliferation
reduction in cell proliferation [14]: limited reduction in cell proliferation

SCD1200: lentiviral construct expressing shRNA against SCD1, 5′-CGTCCTTATGACAAGAACATT-3′ (SEQ ID NO:2)
SCD1 mRNA expression levels [15]: reduced SCD1 mRNA expression levels
SCD1 polypeptide expression levels [15]: reduced SCD1 polypeptide expression levels
SCD1 mRNA expression levels [16]: reduced SCD1 mRNA expression levels
apoptosis by PARP cleavage [17]: induction of apoptosis
proliferation / growth [18]: reduced proliferation

shSCD780: lentiviral construct expressing shRNA against SCD1, 5′-CTACGGCTCTTTCTGATCATT-3′ (SEQ ID NO:1)
ER stress gene expression with addition of OA-BSA ([19]; Caki1, + OA-BSA): successfully blocked
mRNA expression of ER stress genes BiP, CHOP, HERPUD1, GADD45a, CEBPβ ([19]; Caki1, vs DMSO+BSA or NT control): all of the ER stress genes were significantly induced
ER stress gene expression with addition of OA-BSA ([20]; A498, + OA-BSA): successfully blocked
mRNA expression of ER stress genes BiP, CHOP, HERPUD1, GADD45a, CEBPβ ([20]; A498, vs DMSO+BSA or NT control): 4 of the 5 were significantly induced
SCD1 mRNA expression levels [15]: reduced SCD1 mRNA expression levels
SCD1 polypeptide expression levels [15]: reduced SCD1 polypeptide expression levels
SCD1 mRNA expression levels [16]: reduced SCD1 mRNA expression levels
reporter activation with addition of OA-BSA ([21]; A498, + OA-BSA): significantly reduced reporter activation
luciferase activity, fold change induction ([21]; A498, +BSA, 75 nM A939572 or shSCD780, 48 hours, vs DMSO and NT controls): 2.0 fold change
apoptosis by PARP cleavage [17]: induction of apoptosis
protein expression of ER stress markers BiP, CHOP, spliced-XBP1 [22]: amplified expression
reporter activation with addition of OA-BSA ([23]; Caki1, + OA-BSA): significantly reduced reporter activation
luciferase activity, fold change induction ([23]; Caki1, +BSA, 75 nM A939572 or shSCD780, 48 hours, vs DMSO and NT controls): 1.7 fold change
proliferation / growth [18]: significant decreases in growth
proliferation / growth ([18]; listed as SCD780): reduced proliferation
